Reference: patent US20250304623A1, “PEPTIDES FOR INTRACELLULAR DELIVERY” (UNIVERSIDADE DE SANTIAGO DE COMPOSTELA, priority 2022, published 2025)
*: point of attachment. NHNH2 = NN*

Tests used:
Type in all cases: cell-based
A549 cells = assay: RLuc pDNA delivery, robotic library screening, A549
How it was run: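 A549 cells in DMEM+10% FBS were washed twice with PBS and exposed for 4 h to amphiphile/RLuc pDNA complexes prepared from DMSO stocks diluted in DMEM. After medium replacement and 72 hours, cells in HBSS were incubated at 37° C. for 30 minutes, basal then total luminescence measured after 5 μM coelenterazine h; background from untransfected cells was subtracted.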

ARPE19 cells = assay: RLuc pDNA delivery, robotic library screening, ARPE19
[1] = tested on: HepG2 cells expressing EGFP; assay: Cas9-RNP delivery against EGFP (gene editing, plate reader), HepG2
Method: To generate an EGFP expressing HeLa cell line, HeLa cells were transfected with EGFP pDNA (pEGFP-C1, Clontech) and stable transfectants were selected with 400 μg/mL of G-418 (Millipore). Green clones were selected by epifluorescence microscopy and tested for EGFP expression stability through several passages. […] All other EGFP-expressing cell lines were obtained in a similar way from parent non-EGFP-expressing cell lines.
Cells expressing EGFP were seeded in a 96 well plate the day before the experiment at a concentration of 50,000 cell/mL (100 μL/w) in DMEM+10% FBS+1% Gln-Abt. For robotic library screening, the delivery of Cas9-RNP against EGFP (RNP designed to knock-out the gene encoding for the enhanced green fluorescent protein (EGFP)) was performed. For RNP assembly, 9.2 μL of crRNA and 9.2 μL of tracrRNA were mixed in 211.6 μL of Nuclease-Free Duplex Buffer (IDT), incubated for 5 min at 95° C. and slowly cooled at rt (see I. Lostalé-Seijo, et al. Peptide/Cas9 nanostructures for ribonucleoprotein cell membrane transport and gene edition, Chem. Sci., 2017). Cas9 protein was dissolved in DMEM at a final concentration of 4 μM and equal volumes of the RNA complex and Cas9 were mixed and incubated for 5 min at rt. 75 μL of the corresponding amphiphile concentrations were added to 5 μL of RNP at 2 μM. The mixture was shaken for 30 min at room temperature before the addition to the cells. The cell medium was aspirated, and cells were washed twice with PBS. Cells were covered with 30 μL of DMEM and 20 μL of the RNP/amphiphile complexes were added to the cells (final peptide concentrations=2.5, 5 and 10 μM; final Cas9-RNP concentration=50 nM) and incubated for 4 h. After the incubation, the medium was replaced by 100 μL of fresh DMEM supplemented with 10% FBS. The total EGFP fluorescence was quantified after 72 h in a plate reader (FIG. 2, Table 1 (right) and Table 6). All experiments were done in triplicate. […]
Tables 26-31 show the mean (triplicates) percentage of gene editing, accounted by GFP fluorescence intensity decrease (% of reduction), measured after the transfection of Cas9-RNP by different amphiphiles at different concentrations in a variety of cell lines. Background values, accounted by untreated control cells, were subtracted for processing.

Substance	mean luminescent intensity (RLuc pDNA) (A549 cells; Dodecanal, 15 μM) [RLU]	mean luminescent intensity (RLuc pDNA) (A549 cells; Myristoleyl, 5 μM) [RLU]	mean luminescent intensity (RLuc pDNA) (A549 cells; Oleyl, 5 μM) [RLU]	mean luminescent intensity (RLuc pDNA) (A549 cells; Palmitoleyl, 5 μM) [RLU]	mean luminescent intensity (RLuc pDNA) (A549 cells; Palmitoleyl, 10 μM) [RLU]	mean luminescent intensity (RLuc pDNA) (ARPE19 cells; Dodecanal, 5 μM) [RLU]	mean luminescent intensity (RLuc pDNA) (ARPE19 cells; Dodecanal, 10 μM) [RLU]	mean luminescent intensity (RLuc pDNA) (ARPE19 cells; Myristoleyl, 5 μM) [RLU]	mean luminescent intensity (RLuc pDNA) (ARPE19 cells; Myristoleyl, 10 μM) [RLU]	mean luminescent intensity (RLuc pDNA) (ARPE19 cells; Myristoleyl, 15 μM) [RLU]	mean luminescent intensity (RLuc pDNA) (ARPE19 cells; Palmitoleyl, 5 μM) [RLU]	mean luminescent intensity (RLuc pDNA) (ARPE19 cells; Petroselinyl, 5 μM) [RLU]	mean luminescent intensity (RLuc pDNA) (ARPE19 cells; Petroselinyl, 10 μM) [RLU]	mean luminescent intensity (RLuc pDNA) (ARPE19 cells; Petroselinyl, 15 μM) [RLU]	percentage of gene editing, GFP fluorescence intensity decrease (% of reduction) ([1]; Dodecanal, 5 μM) [%]	percentage of gene editing, GFP fluorescence intensity decrease (% of reduction) ([1]; Dodecanal, 10 μM) [%]	percentage of gene editing, GFP fluorescence intensity decrease (% of reduction) ([1]; Myristoleyl, 10 μM) [%]	percentage of gene editing, GFP fluorescence intensity decrease (% of reduction) ([1]; Palmitoleyl, 5 μM) [%]	percentage of gene editing, GFP fluorescence intensity decrease (% of reduction) ([1]; Palmitoleyl, 10 μM) [%]	percentage of gene editing, GFP fluorescence intensity decrease (% of reduction) ([1]; Palmitoleyl, 15 μM) [%]	further results
Ac-RHLK*RHK*RRLK*RH-NH2 (Ac-RHLKRHKRRLKRH-NH2; not fully specified (residues 4, 7, 11); printed as Ac-RHLK*RHK*RRLK*RH-NH2; also: linker on K* not given here) [13(3His)]	1261	37751	25257	18924	2866	11495	366	32411	1998	28	40629	33797	10940	3792	−33	−34	−1	−28	−24	−15	mean luminescent intensity (RLuc pDNA) (A549 cells; Myristoleyl, 10 μM): 2256 RLU; mean luminescent intensity (RLuc pDNA) (A549 cells; Palmitoleyl, 15 μM): 2990 RLU; mean luminescent intensity (RLuc pDNA) (A549 cells; Petroselinyl, 5 μM): 5271 RLU; mean luminescent intensity (RLuc pDNA) (A549 cells; Petroselinyl, 15 μM): 8545 RLU; mean luminescent intensity (RLuc pDNA) (ARPE19 cells; Oleyl, 5 μM): 6754 RLU; mean luminescent intensity (RLuc pDNA) (ARPE19 cells; Palmitoleyl, 10 μM): 6400 RLU; percentage of gene editing, GFP fluorescence intensity decrease (% of reduction) ([1]; Petroselinyl, 5 μM): −16%
Ac-RHLK*RLK*RRLK*RL-NH2 (Ac-RHLKRLKRRLKRL-NH2; not fully specified (residues 4, 7, 11); printed as Ac-RHLK*RLK*RRLK*RL-NH2; also: linker on K* not given here) [13(Arg-His)]	–	8162	14340	8561	–	69520	2762	17	−31	−11	67443	44329	2986	1967	−31	−10	33	−8	26	7	mean luminescent intensity (RLuc pDNA) (A549 cells; Dodecanal, 5 μM): 6594 RLU; mean luminescent intensity (RLuc pDNA) (A549 cells; Palmitoleyl, 15 μM): 3763 RLU; mean luminescent intensity (RLuc pDNA) (A549 cells; Petroselinyl, 15 μM): 9721 RLU; mean luminescent intensity (RLuc pDNA) (ARPE19 cells; Oleyl, 5 μM): 8369 RLU; mean luminescent intensity (RLuc pDNA) (ARPE19 cells; Oleyl, 10 μM): 2379 RLU; mean luminescent intensity (RLuc pDNA) (ARPE19 cells; Oleyl, 15 μM): 716 RLU; mean luminescent intensity (RLuc pDNA) (ARPE19 cells; Palmitoleyl, 15 μM): 670 RLU; percentage of gene editing, GFP fluorescence intensity decrease (% of reduction) ([1]; Dodecanal, 15 μM): 14%; percentage of gene editing, GFP fluorescence intensity decrease (% of reduction) ([1]; Myristoleyl, 5 μM): 10%; percentage of gene editing, GFP fluorescence intensity decrease (% of reduction) ([1]; Oleyl, 10 μM): −4%; percentage of gene editing, GFP fluorescence intensity decrease (% of reduction) ([1]; Oleyl, 15 μM): 15%; percentage of gene editing, GFP fluorescence intensity decrease (% of reduction) ([1]; Petroselinyl, 5 μM): −27%
Ac-RK*LRK*K*L-NH2 (Ac-RK(NHNH2)LRK(NHNH2)K(NHNH2)L-NH2; not fully specified; printed as Ac-RK*LRK*K*L-NH2; also: K*2,K*5,K*6: native or modified lysine (ε-amide to a linker)) [Peptide 7.3]	777	–	–	–	3679	661	458	−209	−262	−315	344	22197	31833	7692	−21	−24	−20	−14	−14	−4	mean luminescent intensity (RLuc pDNA) (A549 cells; Dodecanal, 5 μM): 483 RLU; mean luminescent intensity (RLuc pDNA) (A549 cells; Petroselinyl, 5 μM): 4314 RLU; mean luminescent intensity (RLuc pDNA) (ARPE19 cells; Dodecanal, 15 μM): 558 RLU; percentage of gene editing, GFP fluorescence intensity decrease (% of reduction) ([1]; Dodecanal, 15 μM): −29%; percentage of gene editing, GFP fluorescence intensity decrease (% of reduction) ([1]; Myristoleyl, 5 μM): −19%; percentage of gene editing, GFP fluorescence intensity decrease (% of reduction) ([1]; Myristoleyl, 15 μM): −14%; percentage of gene editing, GFP fluorescence intensity decrease (% of reduction) ([1]; Oleyl, 5 μM): −7%; percentage of gene editing, GFP fluorescence intensity decrease (% of reduction) ([1]; Oleyl, 10 μM): −3%; percentage of gene editing, GFP fluorescence intensity decrease (% of reduction) ([1]; Oleyl, 15 μM): −1%; percentage of gene editing, GFP fluorescence intensity decrease (% of reduction) ([1]; Petroselinyl, 10 μM): −1%
